Patent publication US9931407B2, “Silicon based drug conjugates and methods of using same” (BlinkBio, Inc., priority 2015, dated 2018)

How the values were obtained:
[1] = physchem; conditions: buffer
[2] = system: Folate receptor alpha expressing KB cells; assay: Imaging study demonstrating endocytosis and Si-O cleavage (confocal microscopy); type: cell-based; conditions: 50 nM
Description: Example 79 as shown above contains a folate receptor targeting ligand, a spacer moiety, a siloxane core and two different fluorescent dyes (BODIPY and rhodamine) positioned on either side of the siloxane core. Folate receptor alpha expressing KB cells were grown in folic acid free media. The cells were incubated for 30 minutes on ice with 50 nM of Example 79, washed with fresh culture medium and then incubated in media at 37° C. for the desired length of time. The fate of both dyes was simultaneously monitored using confocal microscopy using Zeiss LSM 780 laser scanning microscope.

[3] = Hydrolysis studies of silicon-linker constructs and conjugates (HEPES buffer, UPLC/MS)
[4] = system: KB cells; assay: Cellular data: KB cell viability (Cell titer-glo luminescence); type: cell-based; conditions: for EC50: folate free RPMI, 2 h compound incubation, wash, additional 70 h; for % Kill (48 h): percent cell kill at 48 h
Description: KB cells in culture were seeded in white clear bottom 96-well tissue culture plate at a density of 5,000 cells per well in a folate free RPMI media with 10% FBS a day prior to compound addition. Cells were counted visually with a hemocytometer and diluted accordingly to obtain the desired density. Cells were allowed to incubate for 24 hours in a humidified CO2 atmosphere in an incubator at 37° C. The spent media was aspirated and replenished with 100 μL of fresh media containing a 3-fold serial dilution of compound with concentrations ranging from 0.3 to 2000 nM and with a final DMSO concentration of 0.1%. Blank wells without compound were also treated with media containing 0.1% DMSO. […] […] At the end of 70 h, the spent media was removed and cells were washed once with fresh media and then suspended 100 μL of PBS. 100 μL of constituted Cell titer-glo reagent was added to each well and luminescence was recorded with a VICTOR plate reader according to manufacturers' protocol.

SMILES: C[Si](C)(C)O[Si](C)(C)CSc1ncccn1 [Example 8, 2-(((1,1,3,3,3-Pentamethyldisiloxanyl)methyl)thio)pyrimidine]
- half-life ([1]; pH 5): 0.0833 h
- half-life ([1]; pH 7.4): 24 h

SMILES: C[Si](C)(COc1ncccn1)O[Si](C)(C)COc1ncccn1 [Example 15, 1,1,3,3-Tetramethyl-1,3-bis((pyrimidin-2-yloxy)methyl)disiloxane]
- half-life ([1]; pH 5): 0.417 h
- half-life ([1]; pH 7.4): > 4 h

SMILES: CCOC(=O)CCC[Si](C)(C)O[Si](C)(C)CCCC(=O)O [Example 7, 4-(3-(4-ethoxy-4-oxobutyl)-1,1,3,3-tetramethyldisiloxanyl)butanoic acid]
- half-life ([1]; pH 5): 0.333 h
- half-life ([1]; pH 7.4): > 24 h

SMILES: CCN(CC)c1ccc2c(-c3ccc(S(=O)(=O)NCc4cnc(SC[Si](C)(C)O[Si](C)(C)CCCN5C(=O)CC(SC[C@H](NC(=O)[C@H](CNC(=O)CCC6=[N+]7C(=Cc8c(C)cc(C)n8[B-]7(F)F)C=C6)NC(=O)[C@H](CC(=O)O)NC(=O)CC[C@H](NC(=O)c6ccc(NCc7cnc8nc(N)[nH]c(=O)c8n7)cc6)C(=O)O)C(=O)O)C5=O)nc4)cc3S(=O)(=O)[O-])c3ccc(=[N+](CC)CC)cc-3oc2c1 (stereo partly shown) [Example 79]
- Cleavage of the siloxane core (color separation of the two fluorescent dyes) ([2]; 37° C., t=30 min): cleavage of the siloxane core was observed
- Endocytosis of intact conjugate into the cell ([2]; 37° C., t=30 min): endocytosis of intact Example 79 into the cell was observed
- Binding to the folate receptor on the cell surface (colocalization of dyes) ([2]; 30 minutes on ice, t=0): bound to the folate receptor on the cell surface
- half-life ([3]; pH 5): 1.67 h
- half-life ([3]; pH 7.4): > 18 h

SMILES: Cc1cc(C)nc(SC[Si](C)(C)O[Si](C)(C)C)n1 [Example 9, 4,6-Dimethyl-2-(((1,1,3,3,3-pentamethyldisiloxanyl)methyl)thio)pyrimidine]
- half-life ([1]; pH 5): 0.417 h
- half-life ([1]; pH 7.4): 40 h

SMILES: CC(=O)NCCC[Si](C)(C)O[Si](C)(C)CCCn1cc(-c2ccccc2)nn1 [Example 69, N-(3-(1,1,3,3-tetramethyl-3-(3-(4-phenyl-1H-1,2,3-triazol-1-yl)propyl)disiloxanyl)propyl)acetamide]
- half-life ([1]; pH 5): 4 h
- half-life ([1]; pH 7.4): > 6 h

SMILES: CC[C@]1(O)C[C@@H]2C[N@@](CCc3c([nH]c4ccccc34)[C@@](C(=O)OC)(c3cc4c(cc3OC)N(C)[C@H]3[C@@](O)(C(=O)NCCC[Si](C)(C)O[Si](C)(C)CSc5ncc(Cn6cc(COCCOCCOCCOCCOCCOCCNC(=O)CC[C@H](NC(=O)c7ccc(NCc8cnc9nc(N)[nH]c(=O)c9n8)cc7)C(=O)O)nn6)cn5)[C@H](O)[C@]5(CC)C=CCN6CC[C@]43[C@@H]65)C2)C1 [Example 80]
- EC50 [4]: ~265 nM
- % Kill (48 h) [4]: 84%
- half-life ([3]; pH 5): 0.75 h
- half-life ([3]; pH 7.4): 24 h

SMILES: Cc1ccnc(SC[Si](C)(C)O[Si](C)(C)C)n1 [Example 27, 4-Methyl-2-(((1,1,3,3,3-pentamethyldisiloxanyl)methyl)thio)pyrimidine]
- half-life ([1]; pH 5): 0.2 h
- half-life ([1]; pH 7.4): > 2 h

SMILES: CC[C@]1(O)C[C@H]2CN(CCc3c([nH]c4ccccc34)[C@@](C(=O)OC)(c3cc4c(cc3OC)N(C)[C@H]3[C@@](O)(C(=O)NCCC[Si](C)(C)O[Si](C)(C)CSc5ncc(Cn6cc(COCC(COCc7cn(Cc8cnc(SC[Si](C)(C)O[Si](C)(C)CCCNC(=O)[C@@]9(O)[C@H](O)[C@]%10(CC)C=CCN%11CC[C@@]%12(c%13cc([C@@]%14(C(=O)OC)C[C@@H]%15CN(CCc%16c%14[nH]c%14ccccc%16%14)C[C@](O)(CC)C%15)c(OC)cc%13N(C)[C@@H]9%12)[C@@H]%11%10)nc8)nn7)(COCc7cn(Cc8cnc(SC[Si](C)(C)O[Si](C)(C)CCCNC(=O)[C@@]9(O)[C@H](O)[C@]%10(CC)C=CCN%11CC[C@@]%12(c%13cc([C@@]%14(C(=O)OC)C[C@@H]%15CN(CCc%16c%14[nH]c%14ccccc%16%14)C[C@](O)(CC)C%15)c(OC)cc%13N(C)[C@@H]9%12)[C@@H]%11%10)nc8)nn7)NC(=O)CCOCCOCCOCCOCCOCCOCCNC(=O)CC[C@H](NC(=O)c7ccc(NCc8cnc9nc(N)[nH]c(=O)c9n8)cc7)C(=O)O)nn6)cn5)[C@H](O)[C@]5(CC)C=CCN6CC[C@]43[C@@H]65)C2)C1 (stereo partly shown) [Example 83]
- half-life ([3]; pH 7.4): > 24 h

SMILES: CC(=O)NCCC[Si](C)(C)O[Si](C)(C)CSc1ncc(Cn2cc(-c3ccc(COCC(COCc4ccc(-c5cn(Cc6cnc(SC[Si](C)(C)O[Si](C)(C)CCCNC(C)=O)nc6)nn5)cc4)(COCc4ccc(-c5cn(Cc6cnc(SC[Si](C)(C)O[Si](C)(C)CCCNC(C)=O)nc6)nn5)cc4)NC(=O)OC(C)(C)C)cc3)nn2)cn1 [Example 73, tert-butyl(1,3-bis((4-(1-((2-(((3-(3-acetamidopropyl)-1,1,3,3-tetramethyldisiloxanyl)methyl)thio)pyrimidin-5-yl)methyl)-1H-1,2,3-triazol-4-yl)benzyl)oxy)-2-(((4-(1-((2-(((3-(3-acetamidopropyl)-1,1,3,3-tetramethyldisiloxanyl)methyl)thio)pyrimidin-5-yl)methyl)-1H-1,2,3-triazol-4-yl)benzyl)oxy)methyl)propan-2-yl)carbamate]
- half-life ([1]; pH 5): 18 h
- half-life ([1]; pH 7.4): > 18 h

SMILES: C[Si](C)(C)O[Si](C)(C)CSc1nccc(C(F)(F)F)n1 [Example 28, 2-(((1,1,3,3,3-pentamethyldisiloxanyl)methyl)thio)-4-(trifluoromethyl)pyrimidine]
- half-life ([1]; pH 5): > 2 h

SMILES: C[Si](C)(CCCC(=O)O)O[Si](C)(C)c1ccccc1 [Example 1, 4-(1,1,3,3-Tetramethyl-3-phenyldisiloxanyl)butanoic acid]
- half-life ([1]; pH 5): 1.67 h
- half-life ([1]; pH 7.4): > 24 h

SMILES: C[Si](C)(C)O[Si](C)(C)CSc1cnccn1 [Example 31, 2-(((1,1,3,3,3-pentamethyldisiloxanyl)methyl)thio)pyrazine]
- half-life ([1]; pH 5): 0.5 h

SMILES: C[Si](C)(C)O[Si](C)(C)CS(=O)(=O)c1ncccn1 [Example 10, 2-(((1,1,3,3,3-Pentamethyldisiloxanyl)methyl)sulfonyl)pyrimidine]
- half-life ([1]; pH 5): 0.583 h
- half-life ([1]; pH 7.4): 0.583 h

SMILES: CC[C@]1(O)C[C@@H]2CN(CCc3c([nH]c4ccccc34)[C@@](C(=O)OC)(c3cc4c(cc3OC)N(C)[C@H]3[C@@](O)(C(=O)NCCC[Si](C)(C)O[Si](C)(C)CSc5ncc(Cn6cc(C[C@H](NC(=O)[C@H](CC(=O)O)NC(=O)[C@H](CC(=O)O)NC(=O)[C@H](CCCNC(=N)N)NC(=O)[C@H](CC(=O)O)NC(=O)CC[C@H](NC(=O)c7ccc(NCc8cnc9nc(N)[nH]c(=O)c9n8)cc7)C(=O)O)C(=O)O)nn6)cn5)[C@H](O)[C@]5(CC)C=CCN6CC[C@]43[C@@H]65)C2)C1 [Example 81]
- % Kill (48 h) [4]: 86%
- half-life ([3]; pH 5): 0.583 h
- half-life ([3]; pH 7.4): 24 h

SMILES: CC[C@]1(O)C[C@H]2CN(CCc3c([nH]c4ccccc34)[C@@](C(=O)OC)(c3cc4c(cc3OC)N(C)[C@H]3[C@@](O)(C(=O)NCCC[Si](C)(C)O[Si](C)(C)CSc5ncc(COCCOCCOCCn6cc(COCC(COCc7cn(CCOCCOCCOCc8cnc(SC[Si](C)(C)O[Si](C)(C)CCCNC(=O)[C@@]9(O)[C@H](O)[C@]%10(CC)C=CCN%11CC[C@@]%12(c%13cc([C@@]%14(C(=O)OC)C[C@@H]%15CN(CCc%16c%14[nH]c%14ccccc%16%14)C[C@](O)(CC)C%15)c(OC)cc%13N(C)[C@@H]9%12)[C@@H]%11%10)nc8)nn7)(COCc7cn(CCOCCOCCOCc8cnc(SC[Si](C)(C)O[Si](C)(C)CCCNC(=O)[C@@]9(O)[C@H](O)[C@]%10(CC)C=CCN%11CC[C@@]%12(c%13cc([C@@]%14(C(=O)OC)C[C@@H]%15CN(CCc%16c%14[nH]c%14ccccc%16%14)C[C@](O)(CC)C%15)c(OC)cc%13N(C)[C@@H]9%12)[C@@H]%11%10)nc8)nn7)NC(=O)CCOCCOCCOCCOCCOCCOCCNC(=O)CC[C@H](NC(=O)c7ccc(NCc8cnc9nc(N)[nH]c(=O)c9n8)cc7)C(=O)O)nn6)cn5)[C@H](O)[C@]5(CC)C=CCN6CC[C@]43[C@@H]65)C2)C1 (stereo partly shown) [Example 82]
- EC50 [4]: ~193 nM
- % Kill (48 h) [4]: 80%
- half-life ([3]; pH 5): 1 h
- half-life ([3]; pH 7.4): > 24 h

SMILES: CC(=O)NCCC[Si](C)(C)O[Si](C)(C)CSc1ncc(Cn2cc(-c3ccccc3)nn2)cn1 [Example 62, N-(3-(1,1,3,3-tetramethyl-3-(((5-((4-phenyl-1H-1,2,3-triazol-1-yl)methyl)pyrimidin-2-yl)thio)methyl)disiloxanyl)propyl)acetamide]
- half-life ([1]; pH 5): 0.333 h
- half-life ([1]; pH 7.4): > 3 h

SMILES: CC(C)C(=O)NCCC[Si](C)(C)O[Si](C)(C)CSc1ncccn1 [Example 34, N-(3-(1,1,3,3-Tetramethyl-3-((pyrimidin-2-ylthio)methyl)disiloxanyl)propyl) isobutyramide]
- half-life ([1]; pH 5): 0.0333 h
- half-life ([1]; pH 7.4): > 2 h

SMILES: CC(=O)NCCC[Si](C)(C)O[Si](C)(C)CSc1ncc(COCCOCCOCCn2cc(COCC(COCc3cn(CCOCCOCCOCc4cnc(SC[Si](C)(C)O[Si](C)(C)CCCNC(C)=O)nc4)nn3)(COCc3cn(CCOCCOCCOCc4cnc(SC[Si](C)(C)O[Si](C)(C)CCCNC(C)=O)nc4)nn3)NC(C)=O)nn2)cn1 [Example 63]
- half-life ([1]; pH 5): 1 h
- half-life ([1]; pH 7.4): > 18 h
